Legend:
Mouse bone marrow cells = experiment: RANKL-induced osteoclast differentiation of bone marrow cells; format: cell-based; settings: M-CSF 20 ng/ml + RANKL 100 ng/ml, six days, peptide 6.25, 12.5 and 25 mM
Description: Osteoporosis is a severely debilitating disease characterized by an extensive loss of bone mass that is mediated by osteoclast-dependent bone resorbtion (Suda et al., (1992) Endocr. Rev. 13, 66-80; Suda et al., (1999) Endocr. Rev. 20, 345-357). It is therefore possible that selective inhibition of NF-κB activation in osteoclast precursor cells would prevent osteoclast differentiation and provide the basis for therapeutically effective drugs for the treatment of osteoporosis. Therefore the effect of the NBD peptides on osteoclast differentiation was tested using a previously described in vitro model (Jimi et al., (1999) Exp. Cell Res. 247, 84-93). Mouse bone marrow cells plated into 48-well tissue culture trays were incubated with human macrophage-colony stimulating factor (M-CSF; 20 ng/ml) and human RANKL (100 ng/ml) for six days in the absence or presence of various concentrations ([…]) of either mutant or wild-type NBD peptide. The cells were then fixed and stained for the osteoclast phenotypic marker tartrate-resistant acid phosphatase (TRAP) and TRAP-positive mutinucleated cells containing more than three nuclei were counted as osteoclasts. Triplicate samples were counted and results were calculated as means±SD.

[1] = system: mice (zymosan-induced peritonitis); experiment: Zymosan-induced peritonitis in mice; format: in vivo, mice (C57BL/6NCR); settings: for PMN accumulation / exudate formation: NBD peptides 200 mg/ml i.p. with zymosan
Experimental: In a second model, peritonitis was induced in mice by intraperitoneal (i.p.) injection of zymosan either alone or in combination with dexamethasone or the NBD peptides. For zymosan-induced peritonitis, measurement of peritoneal exudates and inflammatory cell collections from replicate groups of age and sex matched mice (C57BL/6NCR) were performed as previously described (Getting et al., (1998) Immunology 95, 625-630). Groups of animals were injected concomitantly with one ml zymosan (1 mg/ml) and either dexamethasone (100 mg/ml) or the NBD peptides (200 mg/ml). The concentration of NOX (nitrate plus nitrite) present in the inflammatory exudates was measured using a colorimetric assay kit (Alexis Corporation) according to the manufacturers protocol.

E-selectin = E-selectin expression in primary HUVEC (FACS); format: cell-based, human; settings: for TNFα-induced expression of E-selectin: peptide 100 μM 2 h, TNFα 10 ng/ml 6 h
Experimental: (A) Primary HUVEC were pre-incubated for two hours with wild-typo (middle) or mutant (bottom) NBD peptides (100 μM) then stimulated with TNFα (10 ng/ml) for a further six hours. Control cells received no peptide. Cells were stained with either anti-E-selectin (H4/18) or a non-binding control antibody (K16/16) and expression was measured FACS (FACSort, Becton Dickinson). The profiles show E-selectin staining in the absence (shaded) and presence (solid line) of TNFα and control antibody staining under the sane conditions (dashed line, no TNFα; dotted line, TNFα). (B) % control release of NO2— in various samples. (C) PMA-induced ear edema in mice topically treated with either vehicle (VEH), dexamethasone (DEX) or NBD peptides was induced and measured as described in Example 8. Data are presented as mean differences in ear thickness ±SD (*=p<0.05 compared with both untreated control and vehicle). (D) The effects of the NBD peptide compared with the effect of dexamethasone (DEX) on Zymosan (ZYM)-induced peritonitis in mice were determined as described again in Example 8. Control mice were injected with phosphate-buffered saline (PBS).
Many proteins involved in the initiation and maintenance of inflammatory responses require NF-κB activation for induced expression of their genes (Ghosh et al., (1998) Annu. Rev. Immunol. 16, 225-260; May & Ghosh, (1998) Immunol. Today 19, 80-88). One such protein, E-selectin, is a leukocyte adhesion molecule expressed on the luminal surface of vascular endothelial cells after activation by pro-inflammatory stimuli such as IL-1 or TNFα (Pober et al., (1986) J. Immunol. […], 1680-1687; Bevilacqua et al., (1987) Proc. Natl. Acad. Sci. USA 84, 9238-9242; Collins et al., (1995) FASEB J. 9, 899-909). Expression of E-selectin and other NF-κB-dependent adhesion molecules is crucial for the arrest and recruitment of leukocytes into sites of acute and chronic inflammation. […]

NF-κB = experiment: EMSA of nuclear extracts from TNFα-treated HeLa cells; format: cell-based, human; settings: peptide 50, 100 or 200 μM 3 h, TNFα 10 ng/ml 15 min
[2] = NBD peptide 200 mg/ml i.p. with zymosan

Substance	inhibition of osteoclast differentiation (TRAP-positive multinucleated cells) (Mouse bone marrow cells)	effect on NOX in peritoneal exudates [1, 2]	PMN accumulation [1]	exudate formation [1]	TNFα-induced expression of E-selectin (E-selectin)	inhibition of osteoclast differentiation (TRAP-positive multinucleated cells) (Mouse bone marrow cells; listed as wild type)	inhibition of osteoclast differentiation (TRAP-positive multinucleated cells) (Mouse bone marrow cells; listed as wild-type)	reduction of NOX in peritoneal exudates [1, 2] [%]	E-selectin expression in the absence of TNFα (E-selectin; peptide 100 μM)	inhibition of TNFα-induced activation and nuclear translocation of NF-κB (EMSA) (NF-κB)
[DRQIKIWFQNRRMKWKK]TALDASALQTE (DRQIKIWFQNRRMKWKKTALDASALQTE; Description of Artificial Sequence: Synthetic Mutant NBD peptide) [identical to wild-type NBD peptide except W739 and W741 mutated to alanine, reference compound]	not	no effect	no effect	no effect	not	–	–	–	–	–
[DRQIKIWFQNRRMKWKK]TALDWSWLQTE (DRQIKIWFQNRRMKWKKTALDWSWLQTE; Description of Unknown: Unknown wildtype NBD peptide) [wild-type NBD peptide]	–	–	significantly reduced	significantly reduced	significantly reduced	dose-dependently inhibited	dose dependent inhibition	66±4	induced low level expression	inhibited

— patent US8242240B2, “Anti-inflammatory compounds and uses thereof” (Yale University, priority 2000, dated 2012)
